pIC50: −log10 of the molar value.
Test system: 931267-113-T-J1-PDC KRAS spheroid with HUVEC/MSC, viability
Assay: Anticancer human tumor 931267-113-T-J1-PDC patient-derived colon adenocarcinoma cell line growth inhibition [KRAS2]
Details: for viability, T/C: stronger effect = lower value
Procedure, shortened: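 KRAS-mutant tumor cells were grown as spheroids with HUVEC endothelial cells and human MSCs as stroma. Targeted agents were tested alone and with KRAS pathway inhibitors. Doses started at or near clinical Cmax, or 10 microM, descending half-log.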

[1] = curve of first compound, second compound 0.1 µM
[2] = curve of first compound, second compound 0.316 µM
[3] = curve of first compound, second compound 1 µM
[4] = curve of first compound, second compound 3.16 µM
[5] = curve of first compound, second compound 10 µM
[6] = second compound 0.1 µM, first compound 0.0316 µM
[7] = second compound 0.1 µM, first compound 0.1 µM
[8] = second compound 0.1 µM, first compound 0.316 µM
[9] = second compound 0.1 µM, first compound 1 µM
[10] = second compound 0.1 µM, first compound 3.16 µM
[11] = second compound 0.1 µM, first compound 10 µM
[12] = second compound 0.316 µM, first compound 0.0316 µM
[13] = second compound 0.316 µM, first compound 0.1 µM
[14] = second compound 0.316 µM, first compound 0.316 µM
[15] = second compound 0.316 µM, first compound 1 µM
[16] = second compound 0.316 µM, first compound 3.16 µM
[17] = second compound 0.316 µM, first compound 10 µM
[18] = second compound 1 µM, first compound 0.0316 µM
[19] = second compound 1 µM, first compound 0.1 µM
[20] = second compound 1 µM, first compound 0.316 µM
[21] = second compound 1 µM, first compound 1 µM
[22] = second compound 1 µM, first compound 3.16 µM
[23] = second compound 1 µM, first compound 10 µM
[24] = second compound 3.16 µM, first compound 0.0316 µM
[25] = second compound 3.16 µM, first compound 0.1 µM
[26] = second compound 3.16 µM, first compound 0.316 µM
[27] = second compound 3.16 µM, first compound 1 µM
[28] = second compound 3.16 µM, first compound 3.16 µM
[29] = second compound 3.16 µM, first compound 10 µM
[30] = second compound 10 µM, first compound 0.0316 µM
[31] = second compound 10 µM, first compound 0.1 µM
[32] = second compound 10 µM, first compound 0.316 µM
[33] = second compound 10 µM, first compound 1 µM
[34] = second compound 10 µM, first compound 3.16 µM
[35] = second compound 10 µM, first compound 10 µM
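Also: compound exposure lasted 7 days before the readout.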
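For viability, T/C in this document: 100% = DMSO vehicle control viability.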

SMILES | pIC50 [1] | pIC50 [2] | pIC50 [3] | pIC50 [4] | pIC50 [5] | viability, T/C [6] | viability, T/C [7] | viability, T/C [8] | viability, T/C [9] | viability, T/C [10] | viability, T/C [11] | viability, T/C [12] | viability, T/C [13] | viability, T/C [14] | viability, T/C [15] | viability, T/C [16] | viability, T/C [17] | viability, T/C [18] | viability, T/C [19] | viability, T/C [20] | further results
COC(=O)c1ccc2c(C(=Nc3ccc(N(C)C(=O)CN4CCN(C)CC4)cc3)c3ccccc3)c(O)[nH]c2c1 + CNCc1ccccc1-c1csc(C(C)Nc2nc(C)nc3cc(OC)c(OC)cc23)c1 | 6.32 | 6.45 | 6.34 | > 7.50 | > 7.50 | 65.7% | 81% | 58% | 31% | 0.36% | 0.19% | 76.5% | 86.1% | 55.6% | 2.09% | 0.23% | 0.33% | 84.5% | 99.3% | 72% | viability, T/C [21]: 2.29%; viability, T/C [22]: 0.7%; viability, T/C [23]: 0.32%; viability, T/C [24]: 0.3%; viability, T/C [25]: 0.33%; viability, T/C [26]: 0.17%; viability, T/C [27]: 0.16%; viability, T/C [28]: 0.15%; viability, T/C [29]: 0.2%; viability, T/C [30]: 0.24%; viability, T/C [31]: 0.28%; viability, T/C [32]: 0.13%; viability, T/C [33]: 0.12%; viability, T/C [34]: 0.14%; viability, T/C [35]: 0.29%
CN(C)C/C=C/C(=O)Nc1cc2c(Nc3ccc(F)c(Cl)c3)ncnc2cc1O[C@H]1CCOC1 | – | – | – | – | – | – | – | – | – | – | – | – | – | – | – | – | – | – | – | – | viability, T/C (compound 0.000316 µM): 94.5% [middle of 5 runs]; viability, T/C (compound 0.01 µM): 79.1% [middle of 5 runs]; viability, T/C (compound 0.1 µM): 79% [middle of 5 runs]; pIC50 (curve of compound): < 7.00
CC1(C)CCC(CN2CCN(c3ccc(C(=O)NS(=O)(=O)c4ccc(NCC5CCOCC5)c([N+](=O)[O-])c4)c(Oc4cnc5[nH]ccc5c4)c3)CC2)=C(c2ccc(Cl)cc2)C1 + CNCc1ccccc1-c1csc(C(C)Nc2nc(C)nc3cc(OC)c(OC)cc23)c1 | 5.72 | 5.76 | > 7.50 | > 7.50 | > 7.50 | 107% | 95.7% | 106% | 83.6% | 24% | 4.79% | 82.6% | 69.5% | 83.6% | 81.1% | 19.3% | 1.1% | 41.8% | 47.4% | 54% | viability, T/C [21]: 39.2%; viability, T/C [22]: 4.62%; viability, T/C [23]: 0.48%; viability, T/C [24]: 0.12%; viability, T/C [25]: 0.09%; viability, T/C [26]: 0.2%; viability, T/C [27]: 0.08%; viability, T/C [28]: 0.05%; viability, T/C [29]: 0.38%; viability, T/C [30]: 0.18%; viability, T/C [31]: 0.28%; viability, T/C [32]: 0.14%; viability, T/C [33]: 0.17%; viability, T/C [34]: 0.44%; viability, T/C [35]: 1.23%

Source: PubChem BioAssay AID1963863 (Molecular Pharmacology Branch, DTP, NCI, 2024)
